Measurements from patent US4916130A, “Platelet agglutination-inhibiting agent” (Green Cross Corporation, priority 1987, dated 1990).

Legend:
[1] = test system: platelets (platelet-rich plasma), agglutination induced by arachidonic acid; assay: Inhibition of platelet agglutination induced by arachidonic acid (rat PRP, aggligometer); format: cell-based; conditions: 37° C., arachidonic acid 1 mM, 50% effective concentration from onset time of agglutination vs control group
Protocol: (§1) Blood was collected from the abdominal aorta of a sacrificed rat. The obtained blood was then mixed with a solution of 3.9% sodium citrate at a ratio of one part by volume of sodium citrate solution to nine parts by volume of the blood. The mixture was […] at 116×g for 10 minutes to give a platelet-rich plasma (PRP). The supernatant was further centrifuged at 1,638×g for 10 minutes to give a platelet-poor plasma (PPP). The PRP was diluted with the PPP so as to give a platelet concentration of […].
(§2) The agglutination of platelets was determined with an aggligometer (RINKADENKI HUSM type). Sample solutions of 25 μl were obtained by dissolving each test compound in methanol and adding the resulting solution to a physiological saline solution so as to give a final methanol concentration of 1%. These sample solutions were then added to 225 μl of PRP preliminarily maintained at 37° C. while stirring at 800 rpm. Three minutes thereafter, 50 μl of an agglutination inducer was added thereto while continuously stirring.
Arachidonic acid, when employed as the agglutination inducer, was added at a concentration of 1 mM. The 50% effective concentration of each test compound was calculated by comparing the onset time from the addition of the arachidonic acid to the initiation of the agglutination with that of the control group.

[2] = test system: platelets (platelet-rich plasma), agglutination induced by collagen; assay: Inhibition of platelet agglutination induced by collagen (rat PRP, aggligometer); format: cell-based; conditions: 37° C., collagen 0.14 mg/ml, from inhibition ratio for maximum thrombotic agglutination
Protocol: as §1, §2
Collagen, when employed as the agglutination inducer, was added at a concentration of 0.14 mg/ml. The 50% inhibition concentration of each test compound was calculated from the inhibition ratio thereof for the maximum thrombotic agglutination.

Row | Structure (SMILES) | IC50 [1] [µM] | IC50 [2] [µM]
1 | CCC=CC(=O)NCCSSCCNC(=O)C=CCC [Compound 1, [SCH2 CH2 NH--COCH=CHCH2 CH3]2] | 13 | 15
2 | CCCC=CC(=O)NCCSSCCNC(=O)C=CCCC [Compound 2, [SCH2 CH2 NH--COCH=CH(CH2)2 CH3]2] | 6.7 | 4
3 | CCCCC=CC(=O)NCCSSCCNC(=O)C=CCCCC [Compound 3, [SCH2 CH2 NH--COCH=CH(CH2)3 CH3]2] | 17 | 26
4 | CCCCCC=CC(=O)NCCSSCCNC(=O)C=CCCCCC [Compound 4, [SCH2 CH2 NH--COCH=CH(CH2)4 CH3]2] | 135 | 290
